Test results reported in patent US9693992B2 (MannKind Corporation, priority 2010, dated 2017).

What follows are compounds tested against IRE-1α (Homo sapiens (Human), UniProt O75460) (assay: Cellular EC50: endogenous XBP-1 splicing in myeloma cells (MM.1s, DTT stress, RT-PCR)). Details: average cellular EC50, XBP-1 splicing in myeloma cells.
Assay type: cell-based
Method: Human myeloma MM.1s cells are incubated with a compound for 1.25 hours before stressing the cells with 2 mM dithiothreitol (DTT). After an additional 45 minutes (2 hours total) with compound and DTT, the cells are harvested with TRIZOL® (a mono-phasic solution of phenol and guanidine isothiocyanate), and total RNA is prepared as directed by the manufacturer (Invitrogen). Human XBP-1 is amplified by RT-PCR with the following primers, which flank the 26 base unconventional intron excised by IRE-1α:
RT-PCR of unstressed (U) cells then generates the upper band. When cells are stressed (S) with the endoplasmic reticulum (ER) stressing agent DTT, IRE-1α is activated due to accumulating unfolded protein and the resulting RT-PCR product is 26 base pairs shorter.
Compounds which pass specificity assays are assayed for cellular EC50 using endogenous XBP-1 splicing in myeloma cells. XBP-1 is regulated through the excision of a 26 nucleotide intron from the XBP-1 mRNA by the highly specific endoribonuclease activity of IRE-1α. […] This splicing event is used to measure IRE-1α activity on XBP-1 mRNA in cells and tissues.
Briefly, compounds are incubated in the presence or absence of an ER stress agent (e.g., DTT), and the ratio of XBP-1u (unspliced) to XBP-1s (spliced) is quantified by RT-PCR. The ED50 is determined as the 50% XBP-1s to total XPB-1 levels.

Chain of IRE-1α (O75460 19-977): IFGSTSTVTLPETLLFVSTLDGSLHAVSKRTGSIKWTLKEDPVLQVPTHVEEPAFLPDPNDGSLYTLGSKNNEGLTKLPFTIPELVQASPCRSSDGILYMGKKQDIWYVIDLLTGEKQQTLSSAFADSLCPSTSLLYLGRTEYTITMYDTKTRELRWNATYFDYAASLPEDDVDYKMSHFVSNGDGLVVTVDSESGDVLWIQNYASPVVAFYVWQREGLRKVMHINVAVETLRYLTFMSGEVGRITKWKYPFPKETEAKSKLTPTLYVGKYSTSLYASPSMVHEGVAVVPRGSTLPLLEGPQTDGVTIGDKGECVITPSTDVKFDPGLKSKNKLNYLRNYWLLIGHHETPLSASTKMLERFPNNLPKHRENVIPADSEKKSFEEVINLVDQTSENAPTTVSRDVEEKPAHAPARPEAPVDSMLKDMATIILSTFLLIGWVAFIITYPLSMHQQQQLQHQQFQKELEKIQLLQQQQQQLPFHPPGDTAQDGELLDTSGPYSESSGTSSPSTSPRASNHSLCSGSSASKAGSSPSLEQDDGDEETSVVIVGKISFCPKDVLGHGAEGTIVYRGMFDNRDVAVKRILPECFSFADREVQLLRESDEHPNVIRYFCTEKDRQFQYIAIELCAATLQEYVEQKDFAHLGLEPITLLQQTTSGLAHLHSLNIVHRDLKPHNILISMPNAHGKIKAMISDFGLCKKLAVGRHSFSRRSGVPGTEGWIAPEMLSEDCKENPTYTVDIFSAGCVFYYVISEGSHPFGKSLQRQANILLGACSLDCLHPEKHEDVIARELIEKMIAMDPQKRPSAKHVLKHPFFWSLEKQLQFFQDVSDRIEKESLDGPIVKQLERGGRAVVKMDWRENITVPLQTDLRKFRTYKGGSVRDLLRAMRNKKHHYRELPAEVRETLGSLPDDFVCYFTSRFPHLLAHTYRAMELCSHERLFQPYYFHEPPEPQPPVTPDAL

Row | Structure (SMILES) | EC50
1 | COCCOc1cc(O)c(C=O)c2oc(=O)c(CCC(=O)NCCN3CCOCC3)c(C)c12 [Example 156] | > 10 µM
2 | COCCOc1cc(O)c(C=O)c2oc(=O)c(CCC(=O)NCCN(C)C)c(C)c12 [Example 157] | > 10 µM
3 | CCOC(=O)Cc1c(C)c2c(OCCOC)cc(O)c(C=O)c2oc1=O [Example 158] | < 10 µM
4 | COCCNC(=O)Cc1c(C)c2c(OCCOC)cc(O)c(C=O)c2oc1=O [Example 159] | < 10 µM
5 | COCCOc1cc(O)c(C=O)c2oc(=O)c(CC(=O)N3CCOCC3)c(C)c12 [Example 160] | < 10 µM
6 | COCCOc1cc(O)c(C=O)c2oc(=O)c(CC(=O)N3CCN(C)CC3)c(C)c12 [Example 161] | < 10 µM
7 | CCNC(=O)Cc1c(C)c2c(OCCOC)cc(O)c(C=O)c2oc1=O [Example 162] | < 10 µM
8 | COCCOc1cc(O)c(C=O)c2oc(=O)c(CC(=O)NCCN3CCOCC3)c(C)c12 [Example 163] | < 10 µM
9 | COCCOc1cc(O)c(C=O)c2oc(=O)c(CC(=O)NCCN(C)C)c(C)c12 [Example 164] | > 10 µM
10 | COCCOc1cc(O)c(C=O)c2oc(=O)c(C)c(C)c12 [Example 165] | < 10 µM
11 | COCCNC(=O)Cc1c(C)c2cc(OC)c(O)c(C=O)c2oc1=O [Example 166] | < 10 µM
12 | COc1cc2c(C)c(CC(=O)N3CCN(C)CC3)c(=O)oc2c(C=O)c1O [Example 168] | < 10 µM
13 | CCNC(=O)Cc1c(C)c2cc(OC)c(O)c(C=O)c2oc1=O [Example 169] | < 10 µM
14 | COc1cc2c(C)c(CC(=O)NCCN(C)C)c(=O)oc2c(C=O)c1O [Example 170] | < 10 µM
15 | COCCNC(=O)CCc1c(C)c2cc(OC)c(O)c(C=O)c2oc1=O [Example 171] | < 10 µM
16 | COc1cc2c(C)c(CCC(=O)N3CCOCC3)c(=O)oc2c(C=O)c1O [Example 172] | < 10 µM
17 | COc1cc2c(C)c(CCC(=O)N3CCN(C)CC3)c(=O)oc2c(C=O)c1O [Example 173] | < 10 µM
18 | CCNC(=O)CCc1c(C)c2cc(OC)c(O)c(C=O)c2oc1=O [Example 174] | < 10 µM
19 | COc1cc2c(C)c(CCC(=O)NCCN(C)C)c(=O)oc2c(C=O)c1O [Example 175] | > 10 µM
20 | COCCNC(=O)Cc1c(C)c2c(OC)cc(O)c(C=O)c2oc1=O [Example 176] | < 10 µM
21 | COc1cc(O)c(C=O)c2oc(=O)c(CC(=O)N3CCOCC3)c(C)c12 [Example 177] | < 10 µM

Row | Structure (SMILES) | EC50
22 | COc1cc(O)c(C=O)c2oc(=O)c(CC(=O)N3CCN(C)CC3)c(C)c12 [Example 178] | < 10 µM
23 | COc1cc(O)c(C=O)c2oc(=O)c(CC(=O)NCCN3CCOCC3)c(C)c12 [Example 179] | < 10 µM
24 | COc1cc(O)c(C=O)c2oc(=O)c(CC(=O)NCCN(C)C)c(C)c12 [Example 180] | < 10 µM
25 | COCCOc1cc2c(C)c(CCC(=O)N3CCOCC3)c(=O)oc2c(C=O)c1O [Example 181] | < 10 µM
26 | COCCOc1cc2c(C)c(CCC(=O)N3CCN(C)CC3)c(=O)oc2c(C=O)c1O [Example 182] | < 10 µM
27 | CCNC(=O)CCc1c(C)c2cc(OCCOC)c(O)c(C=O)c2oc1=O [Example 183] | < 10 µM
28 | COCCNC(=O)CCc1c(C)c2cc(OCCOC)c(O)c(C=O)c2oc1=O [Example 184] | < 10 µM
29 | COCCOc1cc2c(C)c(CCC(=O)NCCN(C)C)c(=O)oc2c(C=O)c1O [Example 185] | > 10 µM
30 | COCCOc1cc2c(C)c(CCC(=O)NCCN3CCOCC3)c(=O)oc2c(C=O)c1O [Example 186] | > 10 µM
31 | COCCOc1cc2c(C)c(CC(=O)NCCN3CCOCC3)c(=O)oc2c(C=O)c1O [Example 187] | < 10 µM
32 | COCCOc1cc2c(C)c(CC(=O)N3CCOCC3)c(=O)oc2c(C=O)c1O [Example 188] | < 10 µM
33 | COCCOc1cc2c(C)c(CC(=O)N3CCN(C)CC3)c(=O)oc2c(C=O)c1O [Example 189] | < 10 µM
34 | COCCNC(=O)Cc1c(C)c2cc(OCCOC)c(O)c(C=O)c2oc1=O [Example 190] | < 10 µM
35 | CCNC(=O)Cc1c(C)c2cc(OCCOC)c(O)c(C=O)c2oc1=O [Example 191] | < 10 µM
36 | COc1cc(O)c(C=O)c2oc(=O)c(CCC(=O)N3CCOCC3)c(C)c12 [Example 192] | < 10 µM
37 | COc1cc(O)c(C=O)c2oc(=O)c(CCC(=O)N3CCN(C)CC3)c(C)c12 [Example 193] | < 10 µM
38 | COCCNC(=O)CCc1c(C)c2c(OC)cc(O)c(C=O)c2oc1=O [Example 194] | < 10 µM
39 | COc1cc(O)c(C=O)c2oc(=O)c(CCC(=O)NCCN(C)C)c(C)c12 [Example 195] | < 10 µM
40 | COc1cc(O)c(C=O)c2oc(=O)c(CCC(=O)NCCN3CCOCC3)c(C)c12 [Example 196] | < 10 µM
41 | COc1cc2c(C(F)(F)F)cc(=O)oc2c(C=O)c1O [Example 197] | < 10 µM
42 | COc1cc2c3c(c(=O)oc2c(C=O)c1O)CCC3 [Example 198] | < 10 µM

Row | Structure (SMILES) | EC50
43 | COc1cc2c(C)c(C)c(=O)oc2c(C=O)c1O [Example 199] | > 10 µM
44 | COc1cc2c(C)c(C(C)C)c(=O)oc2c(C=O)c1O [Example 200] | > 10 µM
45 | Cc1c(CCC(=O)NCCN2CCOCC2)c(=O)oc2c(C=O)c(O)ccc12 [Example 201] | < 10 µM
46 | COCCNC(=O)CCc1c(C)c2cc(OCCN3CCOCC3)c(O)c(C=O)c2oc1=O [Example 202] | > 10 µM
47 | Cc1c(C)c2cc(OCCN3CCOCC3)c(O)c(C=O)c2oc1=O [Example 203] | < 10 µM
48 | CCNC(=O)CCc1c(C)c2cc(OCCN3CCOCC3)c(O)c(C=O)c2oc1=O [Example 204] | > 10 µM
49 | COCCNC(=O)Cc1c(C)c2cc(OCCN3CCOCC3)c(O)c(C=O)c2oc1=O [Example 205] | 10 µM
50 | Cc1c(CC(=O)N2CCOCC2)c(=O)oc2c(C=O)c(O)c(OCCN3CCOCC3)cc12 [Example 206] | 10 µM
51 | COc1cc2c(=O)c(CC(=O)N3CCOCC3)c(C)oc2c(C=O)c1O [Example 207] | > 10 µM
52 | COc1cc2c(=O)c(CC(=O)N3CCN(C)CC3)c(C)oc2c(C=O)c1O [Example 208] | > 10 µM
53 | CCNC(=O)Cc1c(C)oc2c(C=O)c(O)c(OC)cc2c1=O [Example 209] | < 10 µM
54 | COc1cc2c(=O)c(CC(=O)NCCN3CCOCC3)c(C)oc2c(C=O)c1O [Example 210] | > 10 µM
55 | COc1cc2c(=O)c(CC(=O)NCCN(C)C)c(C)oc2c(C=O)c1O [Example 211] | > 10 µM
56 | COCCNC(=O)CCc1c(C)oc2c(C=O)c(O)c(OC)cc2c1=O [Example 212] | > 10 µM
57 | CCNC(=O)CCc1c(C)oc2c(C=O)c(O)c(OC)cc2c1=O [Example 213] | > 10 µM
58 | COc1cc2c(=O)c(CCC(=O)NCCN(C)C)c(C)oc2c(C=O)c1O [Example 214] | > 10 µM
59 | COCCNC(=O)CCc1c(C)oc2c(C=O)c(O)ccc2c1=O [Example 215] | < 10 µM
60 | Cc1oc2c(C=O)c(O)ccc2c(=O)c1CCC(=O)N1CCOCC1 [Example 216] | < 10 µM
61 | CCNC(=O)CCc1c(C)oc2c(C=O)c(O)ccc2c1=O [Example 217] | < 10 µM
62 | Cc1oc2c(C=O)c(O)ccc2c(=O)c1CCC(=O)NCCN(C)C [Example 218] | > 10 µM
63 | Cc1oc2c(C=O)c(O)ccc2c(=O)c1CCC(=O)NCCN1CCOCC1 [Example 219] | > 10 µM

Row | Structure (SMILES) | EC50
64 | COCCNC(=O)Cc1c(C)oc2c(C=O)c(O)ccc2c1=O [Example 220] | < 10 µM
65 | Cc1oc2c(C=O)c(O)ccc2c(=O)c1CC(=O)N1CCOCC1 [Example 221] | > 10 µM
66 | Cc1oc2c(C=O)c(O)ccc2c(=O)c1CC(=O)N1CCN(C)CC1 [Example 222] | < 10 µM
67 | CCNC(=O)Cc1c(C)oc2c(C=O)c(O)ccc2c1=O [Example 223] | < 10 µM
68 | Cc1oc2c(C=O)c(O)ccc2c(=O)c1CC(=O)NCCN(C)C [Example 224] | > 10 µM
69 | Cc1oc2c(C=O)c(O)ccc2c(=O)c1CC(=O)NCCN1CCOCC1 [Example 225] | > 10 µM
70 | COCCNC(=O)Cc1c(C)oc2c(C=O)c(O)cc(OC)c2c1=O [Example 226] | < 10 µM
71 | COc1cc(O)c(C=O)c2oc(C)c(CC(=O)N3CCOCC3)c(=O)c12 [Example 227] | < 10 µM
72 | CCNC(=O)Cc1c(C)oc2c(C=O)c(O)cc(OC)c2c1=O [Example 228] | < 10 µM
73 | Cn1c(CCC(=O)N2CCOCC2)nc2ccc(O)c(C=O)c21 [Example 229] | > 10 µM
74 | CCNC(=O)CCc1nc2c(C=O)c(O)ccc2n1C [Example 230] | > 10 µM
75 | COCCNC(=O)CCc1nc2c(C=O)c(O)ccc2[nH]1 [Example 231] | > 10 µM
76 | O=Cc1c(O)ccc2[nH]c(CCC(=O)N3CCOCC3)nc12 [Example 232] | > 10 µM
77 | CN1CCC(NC(=O)CCc2nc3c(C=O)c(O)ccc3[nH]2)CC1 [Example 233] | < 10 µM
78 | CCNC(=O)CCc1nc2c(C=O)c(O)ccc2[nH]1 [Example 234] | > 10 µM
79 | O=Cc1c(O)ccc2nc(CCC(=O)NCCN3CCOCC3)[nH]c12 [Example 235] | > 10 µM
80 | CN(C)CCNC(=O)CCc1nc2c(C=O)c(O)ccc2[nH]1 [Example 236] | > 10 µM
81 | COCCNC(=O)CCc1nc2ccc(O)c(C=O)c2n1C [Example 237] | > 10 µM
82 | Cn1c(CCC(=O)NCCN2CCOCC2)nc2ccc(O)c(C=O)c21 [Example 238] | > 10 µM
83 | CN1CCN(C(=O)CCc2nc3ccc(O)c(C=O)c3n2C)CC1 [Example 239] | > 10 µM
